From US9169254B2, “Spiroimidazolone derivative” (Chugai Seiyaku Kabushiki Kaisha, priority 2009, dated 2015)

Target: T1, human PTH1 receptor (Homo sapiens, UniProt Q03431)
T1 sequence (Q03431 27-593): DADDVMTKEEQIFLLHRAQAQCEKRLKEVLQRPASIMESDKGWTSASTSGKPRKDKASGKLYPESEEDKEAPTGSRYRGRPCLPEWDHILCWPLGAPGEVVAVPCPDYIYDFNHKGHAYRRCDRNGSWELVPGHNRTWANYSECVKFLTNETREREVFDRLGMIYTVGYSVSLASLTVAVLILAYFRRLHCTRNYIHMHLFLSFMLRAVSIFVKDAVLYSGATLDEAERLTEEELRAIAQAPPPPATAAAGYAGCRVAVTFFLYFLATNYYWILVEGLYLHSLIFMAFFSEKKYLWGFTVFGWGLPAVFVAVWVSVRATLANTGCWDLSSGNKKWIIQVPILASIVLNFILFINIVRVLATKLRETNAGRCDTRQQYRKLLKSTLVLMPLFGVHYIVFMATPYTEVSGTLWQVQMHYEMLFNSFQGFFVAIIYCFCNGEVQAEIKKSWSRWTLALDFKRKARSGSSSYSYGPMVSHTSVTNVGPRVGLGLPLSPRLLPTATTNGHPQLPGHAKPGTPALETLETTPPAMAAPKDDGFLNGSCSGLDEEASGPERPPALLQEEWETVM
Assay: In vitro cAMP signal activity in HKRK-B7 cells (LLC-PK1 cells overexpressing the human PTH1 receptor)
Format: cell-based
Settings: HKRK-B7 cells; compound at 1×10^−3 M; cAMP produced as percentage of that produced by hPTH(1-34) at 100 nM

Row | Compound | cAMP production activity (%)
1 | CC(=O)N(C[C@H](O)CO)c1cc(C)c(CCS(=O)(=O)N2CCC3(CC2)N=C(CCCCCCCCC(F)(F)F)NC3=O)c(C)c1 [Compound 824, N—((S)-2,3-dihydroxy-propyl)-N-(3,5-dimethyl-4-{2-[4-oxo-2-(9,9,9-trifluoro-nonyl)-1,3,8-triaza-spiro[4.5]dec-1-ene-8-sulfonyl]-ethyl}-phenyl)-acetamide] | 140%
2 | CCCCCCCCCC1=NC2(CCN(S(=O)(=O)CCc3ccc(N(CCOCCO)C(C)=O)cc3C)CC2)C(=O)N1 [Compound 825, N-[2-(2-hydroxy-ethoxy)-ethyl]-N-{3-methyl-4-[2-(2-nonyl-4-oxo-1,3,8-triaza-spiro[4.5]dec-1-ene-8-sulfonyl)-ethyl]-phenyl}-acetamide] | 114%
3 | Cc1cc(N(CCOCCO)C(N)=O)cc(C)c1CCS(=O)(=O)N1CCC2(CC1)N=C(C1CCC(CCC(F)(F)F)CC1)NC2=O (stereo not drawn) [Compound 826, 1-[3,5-dimethyl-4-(2-{4-oxo-2-[4-(3,3,3-trifluoro-propyl)-cyclohexyl]-1,3,8-triaza-spiro[4.5]dec-1-ene-8-sulfonyl}-ethyl)-phenyl]-1-[2-(2-hydroxy-ethoxy)-ethyl]-urea] | 90%
4 | COCCN(C(N)=O)c1cc(C)c(CCS(=O)(=O)N2CCC3(CC2)N=C(C2CCC(CCC(F)(F)F)CC2)NC3=O)c(C)c1 (stereo not drawn) [Compound 827, 1-[3,5-dimethyl-4-(2-{4-oxo-2-[4-(3,3,3-trifluoro-propyl)-cyclohexyl]-1,3,8-triaza-spiro[4.5]dec-1-ene-8-sulfonyl}-ethyl)-phenyl]-1-(2-methoxy-ethyl)-urea] | 78%
5 | Cc1cc(N(C(N)=O)C(C)C)cc(C)c1CCS(=O)(=O)N1CCC2(CC1)N=C(C1CCC(C)CC1)NC2=O (stereo not drawn) [Compound 828, 1-(3,5-dimethyl-4-{2-[2-(4-methyl-cyclohexyl)-4-oxo-1,3,8-triaza-spiro[4.5]dec-1-ene-8-sulfonyl]-ethyl}-phenyl)-1-isopropyl-urea] | 92%
6 | CCc1cc(N(C)C(N)=O)ccc1CCS(=O)(=O)N1CCC2(CC1)N=C(C1CCC(C)CC1)NC2=O (stereo not drawn) [Compound 829, 1-(3-ethyl-4-{2-[2-(4-methyl-cyclohexyl)-4-oxo-1,3,8-triaza-spiro[4.5]dec-1-ene-8-sulfonyl]-ethyl}-phenyl)-1-methyl-urea] | 79%
7 | Cc1cc(N(C[C@H](O)CO)C(N)=O)cc(C)c1CCS(=O)(=O)N1CCC2(CC1)N=C(C1CCC(C)CC1)NC2=O (stereo partly drawn) [Compound 830, 1-((S)-2,3-dihydroxy-propyl)-1-(3,5-dimethyl-4-{2-[2-(4-methyl-cyclohexyl)-4-oxo-1,3,8-triaza-spiro[4.5]dec-1-ene-8-sulfonyl]-ethyl}-phenyl)-urea] | 73%
8 | Cc1cc(C(=O)N2CCC(O)(CO)CC2)cc(C)c1CCS(=O)(=O)N1CCC2(CC1)N=C(c1cccc(OC(F)(F)F)c1)NC2=O [Compound 831, 8-{2-[4-(4-hydroxy-4-hydroxymethyl-piperidine-1-carbonyl)-2,6-dimethyl-phenyl]-ethanesulfonyl}-2-(3-trifluoromethoxy-phenyl)-1,3,8-triaza-spiro[4.5]dec-1-en-4-one] | 4.7%
9 | CCCCCCCCCC1=NC2(CCN(S(=O)(=O)CCc3c(C)cc(N4C(=O)CNC4=O)cc3C)CC2)C(=O)N1 [Compound 832, 3-{3,5-dimethyl-4-[2-(2-nonyl-4-oxo-1,3,8-triaza-spiro[4.5]dec-1-ene-8-sulfonyl)-ethyl]-phenyl}-imidazolidine-2,4-dione] | 84%
10 | Cc1cc(N2C(=O)NC(COC(C)(C)C)C2=O)cc(C)c1CCS(=O)(=O)N1CCC2(CC1)N=C([C@H]1CC[C@H](C)CC1)NC2=O (stereo partly drawn) [Compound 833, 5-tert-butoxymethyl-3-(3,5-dimethyl-4-{2-[2-(4-methyl-cyclohexyl)-4-oxo-1,3,8-triaza-spiro[4.5]dec-1-ene-8-sulfonyl]-ethyl}-phenyl)-imidazolidine-2,4-dione] | 34%
11 | Cc1cc(N2NCCC2=O)ccc1CCS(=O)(=O)N1CCC2(CC1)N=C([C@H]1CC[C@H](C)CC1)NC2=O [Compound 834, 2-(4-methyl-cyclohexyl)-8-{2-[2-methyl-4-(5-oxo-pyrazolidin-1-yl)-phenyl]-ethanesulfonyl}-1,3,8-triaza-spiro[4.5]dec-1-en-4-one] | 76%
12 | O=C1NC(C2CCCCC2)=NC12CCN(S(=O)(=O)CCc1cccc3cc[nH]c13)CC2 [Compound 835, 2-Cyclohexyl-8-[2-(1H-indol-7-yl)-ethanesulfonyl]-1,3,8-triaza-spiro[4.5]dec-1-en-4-one] | 50%
13 | O=C1NC(C2CCCCC2)=NC12CCN(S(=O)(=O)CCc1cc3cc[nH]c3cc1C(F)(F)F)CC2 [Compound 836, 2-cyclohexyl-8-[2-(6-trifluoromethyl-1H-indol-5-yl)-ethanesulfonyl]-1,3,8-triaza-spiro[4.5]dec-1-en-4-one] | 56%
14 | Cc1cc2[nH]ccc2cc1CCS(=O)(=O)N1CCC2(CC1)N=C(C1CCCCC1)NC2=O [Compound 837, 2-cyclohexyl-8-[2-(6-methyl-1H-indol-5-yl)-ethanesulfonyl]-1,3,8-triaza-spiro[4.5]dec-1-en-4-one] | 66%
15 | O=C1NC(C2CCCCC2)=NC12CCN(S(=O)(=O)CCc1ccc3c(ccn3CCOCCO)c1)CC2 [Compound 838, 2-cyclohexyl-8-(2-{1-[2-(2-hydroxy-ethoxy)-ethyl]-1H-indol-5-yl}-ethanesulfonyl)-1,3,8-triaza-spiro[4.5]dec-1-en-4-one] | 75%
16 | O=C1NC(C2CCCCC2)=NC12CCN(S(=O)(=O)CCc1cc3nc[nH]c3cc1C(F)(F)F)CC2 [Compound 839, 2-cyclohexyl-8-[2-(6-trifluoromethyl-1H-benzimidazol-5-yl)-ethanesulfonyl]-1,3,8-triaza-spiro[4.5]dec-1-en-4-one] | 57%
17 | O=C1NC(c2cccc(C(F)(F)F)c2)=NC12CCN(S(=O)(=O)CCc1cccc3c1ccn3C[C@H](O)CO)CC2 [Compound 840, 8-{2-[1-((S)-2,3-dihydroxy-propyl)-1H-indol-4-yl]-ethanesulfonyl}-2-(3-trifluoromethyl-phenyl)-1,3,8-triaza-spiro[4.5]dec-1-en-4-one] | 98%
18 | Cc1cc(C(=O)N2CCS(=O)(=O)CC2)ccc1CCS(=O)(=O)N1CCC2(CC1)N=C(C1CCCCC1)NC2=O [Compound 841, 2-cyclohexyl-8-{2-[4-(1,1-dioxo-1λ^6-thiomorpholine-4-carbonyl)-2-methyl-phenyl]-ethanesulfonyl}-1,3,8-triaza-spiro[4.5]dec-1-en-4-one] | 45%
19 | Cc1cc(NCCN(C)C)ccc1CCS(=O)(=O)N1CCC2(CC1)N=C(C1CCCCC1)NC2=O [Compound 842, 2-cyclohexyl-8-{2-[4-(2-dimethylamino-ethylamino)-2-methyl-phenyl]-ethanesulfonyl}-1,3,8-triaza-spiro[4.5]dec-1-en-4-one] | 81%
20 | Cc1cc(C(=O)N2CCN(C)CC2)ccc1CCS(=O)(=O)N1CCC2(CC1)N=C(c1cccc(OC(F)(F)F)c1)NC2=O [Compound 843, 8-{2-[2-methyl-4-(4-methyl-piperazine-1-carbonyl)-phenyl]-ethanesulfonyl}-2-(3-trifluoromethoxy-phenyl)-1,3,8-triaza-spiro[4.5]dec-1-en-4-one] | 77%
21 | Cc1cc(S(=O)(=O)NCCN(C)C)ccc1CCS(=O)(=O)N1CCC2(CC1)N=C(C1CCCCC1)NC2=O [Compound 844, 4-[2-(2-cyclohexyl-4-oxo-1,3,8-triaza-spiro[4.5]dec-1-ene-8-sulfonyl)-ethyl]-N-(2-dimethylamino-ethyl)-3-methyl-benzenesulfonamide] | 86%
22 | Cc1cc(NCC(=O)N2CCN(C)CC2)ccc1CCS(=O)(=O)N1CCC2(CC1)N=C(c1cccc(OC(F)(F)F)c1)NC2=O [Compound 845, 8-(2-{2-methyl-4-[2-(4-methyl-piperazin-1-yl)-2-oxo-ethylamino]-phenyl}-ethanesulfonyl)-2-(3-trifluoromethoxy-phenyl)-1,3,8-triaza-spiro[4.5]dec-1-en-4-one] | 68%
23 | Cc1cc(S(=O)(=O)Nc2ccncc2)ccc1CCS(=O)(=O)N1CCC2(CC1)N=C(c1cccc(OC(F)(F)F)c1)NC2=O [Compound 846, 3-methyl-4-{2-[4-oxo-2-(3-trifluoromethoxy-phenyl)-1,3,8-triaza-spiro[4.5]dec-1-ene-8-sulfonyl]-ethyl}-N-pyridin-4-yl-benzenesulfonamide] | 47%
24 | Cc1cc(NCC(N)=O)ccc1CCS(=O)(=O)N1CCC2(CC1)N=C(c1cccc(OC(F)(F)F)c1)NC2=O [Compound 847, 2-(3-methyl-4-{2-[4-oxo-2-(3-trifluoromethoxy-phenyl)-1,3,8-triaza-spiro[4.5]dec-1-ene-8-sulfonyl]-ethyl}-phenylamino)-acetamide] | 71%
